Laboratory results from patent publication US10526316B2, “Quinoxaline and pyridopyrazine derivatives as PI3Kβ inhibitors” (Janssen Pharmaceutica NV, priority 2015, dated 2020).
pIC50, pKd: −log10 of the molar value. Where two headings read alike, the source gives them in different places.

Tests used:
PI3Kβ = molecular target: T1, PI3Kβ (Homo sapiens, UniProt P42338); experiment: Enzyme binding assay (KINOMEscan, DiscoveRx); settings: PIK3Cβ_h, read-out: Kd PIK3Cβ_h
T1 construct: purchased DiscoveRx Corporation, San Diego (contract service, KINOMEscan)
T1 sequence (P42338 whole entry): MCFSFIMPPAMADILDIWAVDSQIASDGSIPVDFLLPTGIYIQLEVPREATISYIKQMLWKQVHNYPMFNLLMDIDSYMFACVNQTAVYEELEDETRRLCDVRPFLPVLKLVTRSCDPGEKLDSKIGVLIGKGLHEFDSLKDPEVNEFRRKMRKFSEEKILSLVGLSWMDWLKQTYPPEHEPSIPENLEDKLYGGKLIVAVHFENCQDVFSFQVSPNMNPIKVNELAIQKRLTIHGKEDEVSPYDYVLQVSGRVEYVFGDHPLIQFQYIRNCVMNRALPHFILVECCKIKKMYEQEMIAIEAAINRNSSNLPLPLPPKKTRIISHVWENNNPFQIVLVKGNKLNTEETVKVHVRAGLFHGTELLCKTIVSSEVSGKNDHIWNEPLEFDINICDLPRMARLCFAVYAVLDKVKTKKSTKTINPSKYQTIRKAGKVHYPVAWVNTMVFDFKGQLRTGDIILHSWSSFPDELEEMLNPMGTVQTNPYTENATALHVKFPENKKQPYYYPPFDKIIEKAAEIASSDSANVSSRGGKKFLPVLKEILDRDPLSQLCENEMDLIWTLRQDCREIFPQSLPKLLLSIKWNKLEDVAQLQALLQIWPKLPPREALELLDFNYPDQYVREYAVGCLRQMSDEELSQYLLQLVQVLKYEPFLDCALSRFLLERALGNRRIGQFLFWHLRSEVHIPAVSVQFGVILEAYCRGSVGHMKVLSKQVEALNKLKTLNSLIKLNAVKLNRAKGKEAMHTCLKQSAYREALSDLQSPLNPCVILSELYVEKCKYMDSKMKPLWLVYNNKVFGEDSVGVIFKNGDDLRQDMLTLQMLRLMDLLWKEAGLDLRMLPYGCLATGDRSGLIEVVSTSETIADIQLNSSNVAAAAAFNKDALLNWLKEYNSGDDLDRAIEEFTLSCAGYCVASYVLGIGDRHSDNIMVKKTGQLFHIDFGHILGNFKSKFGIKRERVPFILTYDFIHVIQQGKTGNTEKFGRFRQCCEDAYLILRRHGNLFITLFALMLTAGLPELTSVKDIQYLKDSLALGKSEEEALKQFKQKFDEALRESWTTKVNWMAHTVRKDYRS
Procedure, shortened: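 Reported Kd (nM) reflects inhibitor binding to the kinase, as measured by KINOMEscan technology.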

PI3Kδ = molecular target: T2, PI3Kδ (Homo sapiens, UniProt O00329); experiment: Enzyme binding assay (KINOMEscan, DiscoveRx); settings: PIK3Cδ_h
T2 construct: purchased DiscoveRx Corporation, San Diego (contract service, KINOMEscan)
T2 sequence (O00329 1-1044): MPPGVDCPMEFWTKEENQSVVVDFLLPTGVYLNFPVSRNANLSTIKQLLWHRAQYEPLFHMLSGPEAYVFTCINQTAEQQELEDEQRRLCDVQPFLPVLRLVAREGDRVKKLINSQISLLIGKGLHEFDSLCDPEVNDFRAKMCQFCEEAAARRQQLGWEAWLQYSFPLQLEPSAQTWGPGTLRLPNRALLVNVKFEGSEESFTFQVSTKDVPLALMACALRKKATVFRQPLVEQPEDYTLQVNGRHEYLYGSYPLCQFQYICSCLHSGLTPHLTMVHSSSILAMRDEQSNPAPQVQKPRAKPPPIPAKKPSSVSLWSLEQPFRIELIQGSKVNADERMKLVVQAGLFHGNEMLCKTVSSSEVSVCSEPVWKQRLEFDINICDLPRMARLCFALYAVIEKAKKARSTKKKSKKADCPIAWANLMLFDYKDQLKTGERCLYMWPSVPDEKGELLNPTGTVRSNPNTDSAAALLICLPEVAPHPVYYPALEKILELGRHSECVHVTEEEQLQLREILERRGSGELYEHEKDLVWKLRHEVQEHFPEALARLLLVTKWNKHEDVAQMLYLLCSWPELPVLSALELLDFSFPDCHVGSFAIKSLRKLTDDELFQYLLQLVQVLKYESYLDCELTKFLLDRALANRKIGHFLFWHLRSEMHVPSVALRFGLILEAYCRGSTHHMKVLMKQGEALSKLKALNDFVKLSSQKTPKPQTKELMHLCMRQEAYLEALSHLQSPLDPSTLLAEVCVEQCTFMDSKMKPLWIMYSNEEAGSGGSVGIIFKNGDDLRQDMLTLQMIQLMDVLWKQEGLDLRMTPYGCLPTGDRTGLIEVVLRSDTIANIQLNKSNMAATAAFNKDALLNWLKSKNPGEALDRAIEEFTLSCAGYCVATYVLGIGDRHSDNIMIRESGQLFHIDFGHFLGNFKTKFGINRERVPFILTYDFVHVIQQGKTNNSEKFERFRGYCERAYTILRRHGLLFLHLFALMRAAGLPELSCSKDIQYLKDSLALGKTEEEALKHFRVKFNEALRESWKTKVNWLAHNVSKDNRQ
Procedure, shortened: (§1)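 Kinase binding measured via KINOMEscan, reported as affinity.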

kinase enzymes [1] = molecular target: T3, kinase enzymes (Homo sapiens, UniProt P42336); experiment: Enzyme binding assay (KINOMEscan, DiscoveRx), further kinases of Table A; settings: PIK3Cα_h
T3 construct: purchased DiscoveRx Corporation, San Diego (contract service, KINOMEscan)
T3 sequence (P42336 whole entry): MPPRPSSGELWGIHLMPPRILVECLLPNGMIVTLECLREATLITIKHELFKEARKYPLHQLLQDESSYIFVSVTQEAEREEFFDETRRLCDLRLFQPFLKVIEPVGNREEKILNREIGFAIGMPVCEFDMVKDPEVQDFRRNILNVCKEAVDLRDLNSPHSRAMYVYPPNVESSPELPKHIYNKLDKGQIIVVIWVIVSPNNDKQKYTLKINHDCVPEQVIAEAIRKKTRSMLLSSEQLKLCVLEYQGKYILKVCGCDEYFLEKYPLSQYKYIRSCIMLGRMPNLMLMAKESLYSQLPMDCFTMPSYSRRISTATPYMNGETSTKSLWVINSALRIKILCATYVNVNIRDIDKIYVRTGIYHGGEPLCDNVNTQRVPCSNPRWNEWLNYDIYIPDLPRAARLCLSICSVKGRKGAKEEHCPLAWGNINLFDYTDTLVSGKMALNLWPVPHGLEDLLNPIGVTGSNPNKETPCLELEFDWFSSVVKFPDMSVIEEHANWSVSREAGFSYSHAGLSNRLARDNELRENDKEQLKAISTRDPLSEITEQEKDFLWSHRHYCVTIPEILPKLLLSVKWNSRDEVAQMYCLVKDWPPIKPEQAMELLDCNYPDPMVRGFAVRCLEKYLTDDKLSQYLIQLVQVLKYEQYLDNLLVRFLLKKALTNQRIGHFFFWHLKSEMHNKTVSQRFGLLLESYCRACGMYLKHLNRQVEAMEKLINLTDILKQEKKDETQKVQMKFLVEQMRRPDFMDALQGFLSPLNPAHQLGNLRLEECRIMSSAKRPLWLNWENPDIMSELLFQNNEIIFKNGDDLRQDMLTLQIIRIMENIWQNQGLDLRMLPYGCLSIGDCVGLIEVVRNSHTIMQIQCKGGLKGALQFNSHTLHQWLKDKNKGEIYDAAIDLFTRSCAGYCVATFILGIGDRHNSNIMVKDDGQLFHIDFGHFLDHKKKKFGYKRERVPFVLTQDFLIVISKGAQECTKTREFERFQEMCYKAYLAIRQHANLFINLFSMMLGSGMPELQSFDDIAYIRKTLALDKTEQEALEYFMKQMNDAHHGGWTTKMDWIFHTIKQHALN
Procedure, shortened: as §1

kinase enzymes [2] = molecular target: T4, kinase enzymes (Homo sapiens, UniProt P42345); experiment: as above; settings: MTOR_h
T4 construct: purchased DiscoveRx Corporation, San Diego (contract service, KINOMEscan)
Procedure, shortened: as §1

kinase enzymes [3] = molecular target: T5, kinase enzymes (Homo sapiens, UniProt P48736); experiment: as above; settings: PIK3Cγ_h
T5 construct: purchased DiscoveRx Corporation, San Diego (contract service, KINOMEscan)
T5 sequence (P48736 whole entry): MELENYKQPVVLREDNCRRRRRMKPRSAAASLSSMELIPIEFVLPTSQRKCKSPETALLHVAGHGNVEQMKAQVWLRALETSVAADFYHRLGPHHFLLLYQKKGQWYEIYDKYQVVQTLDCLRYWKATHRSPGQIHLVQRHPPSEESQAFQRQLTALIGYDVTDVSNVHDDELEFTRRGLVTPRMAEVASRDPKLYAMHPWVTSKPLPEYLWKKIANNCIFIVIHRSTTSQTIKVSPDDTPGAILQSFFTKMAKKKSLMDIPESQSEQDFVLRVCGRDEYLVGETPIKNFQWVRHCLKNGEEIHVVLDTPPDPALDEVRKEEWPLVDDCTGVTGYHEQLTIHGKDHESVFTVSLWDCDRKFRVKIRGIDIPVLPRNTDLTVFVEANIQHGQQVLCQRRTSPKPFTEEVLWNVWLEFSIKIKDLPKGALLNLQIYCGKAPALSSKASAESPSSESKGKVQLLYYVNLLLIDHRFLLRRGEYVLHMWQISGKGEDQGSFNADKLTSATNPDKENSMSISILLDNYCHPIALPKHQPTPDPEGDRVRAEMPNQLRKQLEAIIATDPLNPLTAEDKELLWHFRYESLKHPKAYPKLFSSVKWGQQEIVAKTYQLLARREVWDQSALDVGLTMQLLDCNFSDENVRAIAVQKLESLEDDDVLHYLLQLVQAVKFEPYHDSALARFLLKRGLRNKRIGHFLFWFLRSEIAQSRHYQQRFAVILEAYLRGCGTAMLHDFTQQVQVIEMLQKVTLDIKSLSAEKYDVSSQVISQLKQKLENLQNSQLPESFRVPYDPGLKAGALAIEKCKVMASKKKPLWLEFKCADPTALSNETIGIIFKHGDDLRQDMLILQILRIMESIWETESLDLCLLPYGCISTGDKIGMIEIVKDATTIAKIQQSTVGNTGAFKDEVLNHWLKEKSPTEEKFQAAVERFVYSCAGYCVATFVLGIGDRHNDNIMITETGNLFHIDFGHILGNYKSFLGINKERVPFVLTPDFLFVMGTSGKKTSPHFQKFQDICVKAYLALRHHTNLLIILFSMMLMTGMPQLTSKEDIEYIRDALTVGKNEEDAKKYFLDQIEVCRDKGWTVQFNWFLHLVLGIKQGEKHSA
Procedure, shortened: as §1

[4] = system: Akt phosphorylated at Ser473 in PC-3 cells; experiment: Cellular assay: phosphorylation of Akt at Ser473 in PC-3 cells (MSD ELISA); format: cell-based; settings: PC-3 cells, 60 min compound incubation, MSD ELISA, read-out: IC50 pAkt_S473
Procedure, shortened: (§2)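 Electrochemiluminescent sandwich ELISA read-out: phospho-specific capture (Ser473 or Thr308), Sulfo-tag anti-total Akt detection, signal proportional to phospho-Akt. Cells treated 60 min at 37° C with compound, DMSO 0.3%. IC50 fitted from five concentrations.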

[5] = system: Akt phosphorylated at Thr308 in PC-3 cells; experiment: Cellular assay: phosphorylation of Akt at Thr308 in PC-3 cells (MSD ELISA); format: cell-based; settings: PC-3 cells, 60 min compound incubation, MSD ELISA, read-out: IC50 pAkt_Thr308
Procedure, shortened: as §2

Compound	pKd (PI3Kβ)	pKd (PI3Kδ)	pKd (kinase enzymes [1])	pKd (kinase enzymes [2])	pKd (kinase enzymes [3])	pIC50 ([4]; Homo sapiens, PC-3, 1 h)	pIC50 ([5]; Homo sapiens, PC-3, 1 h)	melting point	pIC50 [4]	pIC50 [5]
CC(Nc1ccc(F)c(F)c1)c1cc(C(=O)NCCN(C)C)cc2ncc(N3CCOCC3)nc12 (stereo not shown) [Compound 281]	9.52	7.04	5.50	< 4.52	5.45	7.82	7.82	80 °C	–	–
CNCCNC(=O)c1cc(C(C)Nc2cccc(F)c2)c2nc(N3CCOCC3)cnc2c1 (stereo not shown) [Compound 282]	9.70	7.17	6.08	4.63	5.74	8.15	8.22	100 °C	–	–
CC(Nc1ccc(F)c(F)c1)c1cc(C(=O)N2CCN3CCC[C@H]3C2)cc2ncc(N3CCOCC3)nc12 (stereo partly shown) [Compound 287]	7.89	6.01	5.57	< 4.52	4.58	6.82	7.32	80 °C	–	–
CC(Nc1cc(F)c(F)c(F)c1)c1cc(C(=O)NCC(C)(C)O)cc2ncc(N3CCOCC3)nc12 (stereo not shown) [Compound 292]	7.80	5.77	5.18	< 4.52	4.56	6.36	6.63	80 °C	–	–
Cc1ccc(NC(C)c2cc(C(=O)NCCO)cc3ncc(N4CCOCC4)nc23)cc1F (stereo not shown) [Compound 295]	6.51	5.11	5.14	4.51	5.20	< 6.29	< 6.29	80 °C	–	–
CN(C)C(=O)c1cc(C(CO)N(C)c2cccc(F)c2)c2nc(N3CCOCC3)cnc2c1 (stereo not shown) [Compound 301]	7.37	5.49	5.27	4.82	5.82	< 6.29	6.37	315 °C	–	–
CC(Nc1ccc(F)c(F)c1)c1cc(C(=O)N2CCC[C@H](O)C2)cc2ncc(N3CCOCC3)nc12 (stereo partly shown) [Compound 302]	8.30	6.42	5.71	< 4.52	4.81	7.12	7.12	80 °C	–	–
CC(Nc1ccc(F)c(F)c1)c1cc(CO)cc2ncc(N3CCOCC3)nc12 (stereo not shown) [Compound 303]	8.05	6.34	5.45	4.73	5.41	7.06	7.10	138 °C	–	–
Cc1c(F)cccc1CN(C)c1cc(C(=O)N2CC3(C2)CS(=O)(=O)C3)cc2ncc(N3CCOCC3)nc12 [Compound 308]	6.49	5.14	< 4.52	< 4.52	< 4.52	< 6.29	< 6.29	195 °C	–	–
O=C(NCCO)c1cc(NCc2cccc(F)c2C2CCNCC2)c2nc(N3CCOCC3)cnc2c1 [Compound 317]	7.89	6.15	5.21	< 4.52	4.68	< 6.29	< 6.29	167 °C	–	–
CC(Nc1ccc(F)c(F)c1)c1cc(C(=O)N(C)C2CCNC2)cc2ncc(N3CCOCC3)nc12 (stereo not shown) [Compound 322b]	9.52	7.17	5.66	< 4.52	5.21	–	–	80 °C	7.38	7.59
CC(Nc1ccc(F)c(F)c1)c1cc(C(=O)N(C)C2CCNC2)cc2ncc(N3CCOCC3)nc12 (stereo not shown) [Compound 323b]	9.00	6.74	5.42	< 4.52	5.51	–	–	130 °C	6.68	7.00
O=C(NCCO)c1cc(CNc2cc(F)cc(F)c2)c2nc(N3CCOCC3)cnc2c1 [Compound 333]	7.43	5.13	5.28	< 4.52	4.76	< 6.29	6.83	265 °C	–	–
Cc1c(F)cccc1CNc1cc(C(=O)NCCO)cc2ncc(N3CCOCC3)nc12 [Compound 336]	8.40	6.06	5.71	4.96	5.04	7.07	7.34	194 °C	–	–
CNCCNC(=O)c1cc(NCc2cc(F)cc(F)c2)c2nc(N3CCOCC3)cnc2c1 [Compound 340]	8.70	6.43	5.82	4.92	5.30	7.12	7.30	180 °C	–	–
CC(Nc1ccc(F)c(F)c1)c1cc(C(=O)N2CCN3CCC[C@@H]3C2)cc2ncc(N3CCOCC3)nc12 (stereo partly shown) [Compound 347]	8.40	6.39	5.43	< 4.52	4.54	–	7.20	170 °C	6.66	–
CC(Oc1ccc(F)c(F)c1)c1cc(C(=O)N(C)CCN(C)C)cc2ncc(N3CCOCC3)nc12 (stereo not shown) [Compound 353]	8.40	6.16	5.30	< 4.52	< 4.52	7.28	7.74	80 °C	–	–
